US20260356820A1, “Pyrrolidine and Imidazolidine Based DNA Polymerase Theta Inhibitors and Use Thereof” (Thomas Jefferson University, priority 2022, published 2026)
Like-named read-outs stand apart in the source and are kept apart here.

Tests used:
[1] = tested on: cell types harboring BRCA2 mutations (PE01, VC8, CAPAN-1; BRCA2-null HCT116 and DLD1); assay: Synergy with PARP inhibitors, clonogenic survival of BRCA2-mutated/null cells; type: cell-based; settings: olaparib as PARP inhibitor, Combenefit software analysis
Source text: FIG. 3A depicts a representative scatter plot and synergy plot showing clongenic survival of HCT116 BRCA2-null cells treated with varying concentrations of olaparib with DMSO or various concentrations of Example 6. FIG. 3B depicts a representative scatter plot synergy plot showing clongenic survival of DLD1 BRCA2-null cells treated with varying concentrations of olaparib with DMSO or various concentrations of Example 6. FIG. 3C depicts a representative scatter plot synergy plot showing clongenic survival of PE01 cells treated with varying concentrations of olaparib with DMSO or various concentrations of Example 6. FIG. 3D depicts a representative scatter plot synergy plot showing clongenic survival of VC8 cells treated with varying concentrations of olaparib with DMSO or various concentrations of Example 6. FIG. 3E depicts a representative scatter plot synergy plot showing clongenic survival of CAPAN-1 cells treated with varying concentrations of olaparib with DMSO or various concentrations of Example 6. FIG. 3F depicts a representative scatter plot showing clongenic survival of MDA-MB-231 cells following treatment with various concentrations of talazoparib and DMSO or various concentrations of Example 6 and representative images of colony plates. For FIG. 3A through FIG. 3F, data are presented as mean±SEM; n=3; p-values calculated by two-sample t test. […]

[2] = target: T1, human Polq polymerase domain (Homo sapiens, UniProt O75417); assay: Cy5 fluorescence assay of Polq polymerase domain inhibition; type: biochemical
T1 sequence (O75417 1792-2590): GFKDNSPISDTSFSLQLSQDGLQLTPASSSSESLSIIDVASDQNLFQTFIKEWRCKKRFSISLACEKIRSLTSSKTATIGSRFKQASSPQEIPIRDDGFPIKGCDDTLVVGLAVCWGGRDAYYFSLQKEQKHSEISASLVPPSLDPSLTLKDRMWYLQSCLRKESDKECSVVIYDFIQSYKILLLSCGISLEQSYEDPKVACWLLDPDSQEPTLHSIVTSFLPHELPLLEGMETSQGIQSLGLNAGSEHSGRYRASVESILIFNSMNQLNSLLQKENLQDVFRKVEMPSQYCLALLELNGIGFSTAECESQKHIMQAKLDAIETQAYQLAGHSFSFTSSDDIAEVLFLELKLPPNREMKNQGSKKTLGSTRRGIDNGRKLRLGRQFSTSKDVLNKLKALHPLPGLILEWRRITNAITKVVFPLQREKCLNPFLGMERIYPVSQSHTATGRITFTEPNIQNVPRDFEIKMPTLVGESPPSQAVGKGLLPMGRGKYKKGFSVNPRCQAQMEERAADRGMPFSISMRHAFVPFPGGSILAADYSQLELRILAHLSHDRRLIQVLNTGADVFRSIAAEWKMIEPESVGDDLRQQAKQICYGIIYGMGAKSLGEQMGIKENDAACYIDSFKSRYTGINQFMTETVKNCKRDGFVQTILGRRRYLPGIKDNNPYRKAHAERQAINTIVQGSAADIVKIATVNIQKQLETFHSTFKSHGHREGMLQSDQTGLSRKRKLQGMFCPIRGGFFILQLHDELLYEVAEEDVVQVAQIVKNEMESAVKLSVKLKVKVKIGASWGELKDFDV
Procedure: The following Cy5 fluorescence assay was used to measure the ability of compounds to inhibit Polq polymerase domain in vitro. The fluorescent based assay was performed as follows: 60 nM of the pre-annealed primer-template containing a 5′ Cy5 fluorophore conjugated template strand (SEQ ID NO:3: 5′-/5Cy5/[…]-3′), a downstream complementary oligo conjugated with a 3′ Blackhole quencher (SEQ ID NO:4: 5′-CTAAGCTCACAGTG/3IAbRQSp/-3′) and a primer strand (SEQ ID NO:5: 5′-CTGTCCTGCATGATG-3′) was mixed with 50 uM 2′-deoxyribonucleoside triphosphates (dNTPs), 0.1 mg/mL Bovine serum albumin (BSA), 0.01% NP-40, 10% glycerol, 1 mM dithiothreitol (DTT), 10 mM MgCl2, 25 mM TrisHCl pH 7.8 in the presence of 2.5% DMSO with or without various concentrations (7-point dilution series) of Polq small molecule inhibitors represented by Formula I at 37 °C in a volume of 40 μL.

SMILES | synergy with PARP inhibitors (clonogenic survival) [1] | IC50 [2] | IC50 ([2]; 5 nM Polq polymerase domain (residues 1792-2590), 60 nM primer-template, 50 uM dNTPs, 37 °C, 18 min, read-out: IC50 (nM) Polq)
CN(C(=O)Oc1c(N2CCN(CCO)C2=O)cc(C(F)(F)F)cc1C(F)(F)F)c1ccc(F)cc1 [Example 6, 2,4-bis(trifluoromethyl)-6-(3-(2-hydroxyethyl)-2-oxoimidazolidin-1-yl)phenyl (4-fluorophenyl)(methyl)carbamate] | Synergy | 3.2 nM | 
CN(C)CC(O)CN1CCN(c2cc(C(F)(F)F)cc(C(F)(F)F)c2OC(=O)N(C)c2ccc(F)cc2)C1=O (stereo not shown) [Example 24, 2-(3-(3-(dimethylamino)-2-hydroxypropyl)-2-oxoimidazolidin-1-yl)-4,6-bis(trifluoromethyl)phenyl (4-fluorophenyl)(methyl)carbamate] |  |  | 6.7 nM
CN(C(=O)Oc1c(N2CCNC2=O)cc(C(F)(F)F)cc1C(F)(F)F)c1ccc2ccn(C)c2n1 [Example 29, 2-(2-oxoimidazolidin-1-yl)-4,6-bis(trifluoromethyl)phenyl N-methyl-N-{1-methyl-1H-pyrrolo[2,3-b]pyridin-6-yl}carbamate] |  | 18000 nM | 
[2H]C([2H])([2H])N(C(=O)Oc1c(N2CCN(CCn3cnnc3)C2=O)cc(C(F)(F)F)cc1C(F)(F)F)c1ccc(F)cc1 [Example 43, 2-(3-(2-(4H-1,2,4-triazol-4-yl)ethyl)-2-oxoimidazolidin-1-yl)-4,6-bis(trifluoromethyl)phenyl (4-fluorophenyl)(methyl-d3)carbamate] |  | 5.4 nM | 
[2H]C([2H])([2H])N(C(=O)Oc1c(N2CCN(CC3(O)CNC3)C2=O)cc(C(F)(F)F)cc1C(F)(F)F)c1ccc(F)cc1 [Example 36, 2-(3-((3-hydroxyazetidin-3-yl)methyl)-2-oxoimidazolidin-1-yl)-4,6-bis(trifluoromethyl)phenyl (4-fluorophenyl)(methyl-d3)carbamate] |  | 6 nM | 
C[C@@H]1CCC(=O)N1c1cc(C(F)(F)F)cc(C(F)(F)F)c1OC(=O)N(C)c1ccc(F)cc1 [Example 17, 2-[(2R)-2-methyl-5-oxopyrrolidin-1-yl]-4,6-bis(trifluoromethyl)phenyl N-(4-fluorophenyl)-N-methylcarbamate] |  | 1000 nM | 
